Test results from patent US12194042B2, “Uses” (INTRA-CELLULAR THERAPIES, INC., priority 2018, dated 2025).
Entries after “also recorded” stand apart in the source; their conditions may differ.

Assays:
Assay type in all cases: in vivo, human
[1] = Pharmacokinetic profile in the Phase 1/2 study
Protocol: (§1) The study is designed to evaluate the safety and tolerability of Compound 1 in patients who are maintained on stable PD therapy. Another objective is to evaluate the pharmacokinetic profile of Compound 1 and explore its potential utility to control motor fluctuations and to evaluate treatment of non-motor symptoms (e.g., daytime sleepiness, dysautonomia) associated with PD. Biomarkers of disease progression (i.e., inflammation) are assessed.
(§2) 40 patients with idiopathic PD are recruited for the study. Patients with mild to moderate PD (Hoehn and Yahr staging score of 1-3 assessed in the “On” state) maintained on stable PD therapy are randomly assigned to placebo or 5 cohorts of Compound 1 at 1 mg, 3 mg, 10 mg, 30 mg, and 90 mg administered orally once daily for 7 days. All patients participating in the study are maintained on their stable PD therapy (e.g., dopamine replacement therapies), some of which are taking more than one category of PD therapy. Of the 40 patients, there are 28 receiving carbidopa/L-dopa, 14 receiving a dopamine agonist, 5 receiving amantadine, and 3 receiving MAO inhibitors.
Plasma steady state is achieved in the first 48 hours and supports once-a-day dosing for future efficacy trials.

[2] = tested on: patients with mild to moderate Parkinson's Disease (PD); experiment: Phase 1/2 randomized, double-blind, placebo-controlled, multiple rising dose clinical study: safety and tolerability
Protocol: (§3) A Phase 1/2 randomized, double-blind, placebo-controlled, multiple rising dose clinical study was carried out to evaluate Compound 1 (below) in patients with mild to moderate Parkinson's Disease (PD).
as §1, §2

[3] = tested on: patients with mild to moderate Parkinson's Disease (PD); experiment: Unified Dyskinesia Rating Scale (UDysRS) in the Phase 1/2 study; conditions: FIG. 2
Protocol: as §3, §2
(§4) The efficacy of Compound 1 in improving motor and non-motor symptoms of PD is measured using multiple scales, providing input from both subjects and site raters. Motor performance was improved and motor complications were reduced in the “On” state by Compound 1 relative to placebo treatment as assessed by the Movement Disorder Society Unified Parkinson's Disease Rating Scale (MDS-UPDRS) (FIG. 1). […] (FIGS. 3-4).

[4] = tested on: patients with mild to moderate Parkinson's Disease (PD); experiment: CISI-PD (Clinical Impression of Severity Index for PD) in the Phase 1/2 study; conditions: versus placebo; FIG. 4
Protocol: as §3, §2

[5] = tested on: patients with mild to moderate Parkinson's Disease (PD); experiment: Unified Parkinson's Disease Rating Scale (MDS-UPDRS) in the Phase 1/2 study
Protocol: as §3, §2, §4

[6] = tested on: patients with mild to moderate Parkinson's Disease (PD); experiment: Hauser Patient Motor Diary in the Phase 1/2 study; conditions: rated by subjects, oral once daily for 7 days
Protocol: as §3, §2, §4

[7] = "On" state, relative to placebo, FIG. 1

In the case of `CN1C(=O)c2c(nn(Cc3ccc(-c4cccc(F)n4)cc3)c2Nc2ccccc2)N2C1=N[C@@H]1CCC[C@@H]12` [Compound 1, (6aR,9aS)-5,6a,7,8,9,9a-hexahydro-5-methyl-3-(phenylamino)-2-((4-(6-fluoropyridin-2-yl)phenyl)methyl)-cyclopent[4,5]imidazo[1,2-a]pyrazolo[4,3-e]pyrimidin-4(2H)-one], the “time to plasma steady state” value ([1]; once daily oral dosing) is reported as no more than 48 h, the “pharmacokinetics (dose linearity)” value ([1]; parent drug and metabolites, across 1 mg to 90 mg) is reported as “linear pharmacokinetics” and the serious adverse events ([2]; 1 mg to 90 mg orally once daily for 7 days) is reported as “No serious adverse events”. For the same compound, the “induction or worsening of motor complications” value ([2]; PD patients receiving concomitant dopamine replacement therapies) was “did not induce or worsen motor complications”, the “effects on vital signs, cardiovascular or laboratory parameters” value ([2]; compared to placebo) was “no clinically significant effects” and the tolerability ([2]; once-daily oral for 7 days, doses from 1 mg to 90 mg) was “generally well tolerated”. For the same compound, the safety profile ([2]; once-daily oral for 7 days, no titration, 1 mg to 90 mg) was “favorable safety profile”, the “side effects of dopamine replacement therapies” value ([2]; patients on dopamine replacement therapies) was “reduces the side effects” and the “dyskinesia symptoms / motor complications measured by UDysRS” value ([3]; oral once daily for 7 days) was “reductions; also recorded: reduces dyskinesia symptoms”. The “Objective UDysRS Total Score” value ([3]; subjects with dyskinesia at baseline, after treatment) was “Improves”, the “CISI-PD Motor Complications Score” value [4] was “reductions; also recorded: decreased” and the “UPDRS scores at end of study (EOS)” value ([5]; 30 days after cessation of treatment, FIG. 1) was “Scores increase”. For the same compound, the “motor complications (MDS-UPDRS)” value [5, 7] was “reduced”, the “motor performance (MDS-UPDRS)” value [5, 7] was “improved” and the UPDRS scores ([5]; by day 7 of treatment, PD patients on stable PD therapy, FIG. 1) was “decrease scores”. For the same compound, the “MDS-UPDRS total scale scores” value ([5]; oral once daily for 7 days) was “reduces scores”, the “motor symptoms (UPDRS Part III; clinician ratings of the motor manifestations of PD)” value ([5]; oral once daily for 7 days, on stable PD therapy) was “reductions; also recorded: reduces scores” and the “motor complications including dyskinesias (UPDRS Part IV subscale)” value ([5]; oral once daily for 7 days, Part IV data not shown) was “reductions; also recorded: reduces scores”. The “total On time (Hauser Patient Motor Diary)” value [6] was “increased” and the “"On" time without dyskinesias (Hauser Patient Motor Diary)” value ([6]; versus placebo) was “increases on-time without causing dyskinesia; also recorded: increased”.
